Entries after “also recorded” stand apart in the source; their conditions may differ. Read-outs that look alike come from different tables or passages of the source.
Experiments:
[1] = biological target: T1, recombinant mouse NAPE-PLD (Mus musculus, UniProt Q8BH82); test: In vitro fluorescence NAPE-PLD activity assay (HTS/CRC) with recombinant mouse NAPE-PLD and PED-A1; format: biochemical; details: for Emax (95% Cl): Table 4, maximal efficacy as fold increase in NAPE-PLD activity versus vehicle only; for Max % bA (%): maximum induced activity compared to basal (100%) activity; for bAC175: compound concentration to induce 175% basal activity
T1 construct: hexahistidine (His6) (C); made in house; host or cells: E. coli
T1 sequence (Q8BH82 1-396): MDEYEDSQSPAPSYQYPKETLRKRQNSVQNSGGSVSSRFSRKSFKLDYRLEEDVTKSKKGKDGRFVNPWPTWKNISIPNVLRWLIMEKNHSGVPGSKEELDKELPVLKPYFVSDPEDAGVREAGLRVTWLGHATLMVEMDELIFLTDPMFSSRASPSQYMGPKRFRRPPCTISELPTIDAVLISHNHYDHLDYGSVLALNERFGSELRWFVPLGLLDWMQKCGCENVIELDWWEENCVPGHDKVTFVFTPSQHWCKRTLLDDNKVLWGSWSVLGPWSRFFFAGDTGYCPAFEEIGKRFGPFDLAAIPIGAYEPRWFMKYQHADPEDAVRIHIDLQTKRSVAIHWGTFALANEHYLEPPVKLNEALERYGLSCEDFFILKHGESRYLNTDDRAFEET
Method: Using the fluorogenic NAPE substrate, PED-A1, and recombinant mouse NAPE-PLD (rNAPE-PLD), an in vitro high-throughput (HTS) assay was conducted to screen ˜40,000 compounds for their ability to modulate NAPE-PLD activity. The HTS assay enabled the detection of both NAPE-PLD activators and inhibitors. […] Initial structure-activity response studies with the top hits identified benzothiazole phenylsulfonyl-piperidine carboxamide analogs (BT-PSP analogs) as lead compounds for NAPE-PLD activators (Table 1). The lead BT-PSP analog identified, VU534, induces 50% of its activation effect on NAPE-PLD at 270 nM (AC50 270 nM), and induces a maximal effect of 195% of basal NAPE-PLD activity (Table 1).
In vitro fluorescence NAPE-PLD activity assays using recombinant NAPE-PLD and either PED-A1 or flame-NAPE as fluorogenic substrate were performed as previously described except with small modifications as noted below. See Aggarwal et al., J. Biol. Chem. 295(21): 7289-7300 (2020); Zarrow et al., J. Lipid Res. 63(1): 100156 (2022).
For the HTS assays, test compounds were incubated with recombinant enzyme for 1 h prior to adding PED-A1 (final 0.4 μM) mixed with N-palmitoyl-dioleoyl-PE (final 3.6 μM) to adjust for the high sensitivity of the Panoptic instrument (WaveFront Biosciences). Assays used black-wall, clear-bottom, non-sterile, and non-treated 384-well plates (Greiner Bio-One 781906). The assay was read in kinetic fluorescence mode on the Panoptic instrument for 4 min and the slope of the signal from 30-100 s was used for analysis. A total of 39,328 compounds from the Vanderbilt Discovery Collection were tested, each at 10 μM. The tested compounds were chosen to represent a structurally diverse selection from the full library. Each 384-well plate included 320 test compound wells and 64 control wells. Unlike previous pilot screening assays, bithionol (10 μM final) was used in place of lithocholic acid (100 μM final) as the inhibitor control. Before performing high-throughput screening, a checkerboard assay was performed to validate the assay parameters. This yielded a Z′ score of 0.676. Z′ scores were also calculated for each plate during screening, and plates with scores <0.5 were re-run. The average Z′ across all screening plates was 0.52, and the total hit rate was 3.6%. B-scores were calculated from the initial slopes across each plate using WaveGuide software (WaveFront Biosiences). Modulator hits were defined as compounds with absolute B-scores of 3 or higher. The number of compounds in various B-score ranges were as follows: […], 12 compounds; −10 to −5, 221 compounds; −5 to −3, 770 compounds; −3 to 3, 37924 compounds; 3 to 4, 314 compounds; 4 to 6, 70 compounds; 6 to 10, 15 compounds. Activator hits with B-scores of >3 were selected for the replication assay and a selection of analogs of the activators.
Concentration response curve (CRC) experiments used the same assay conditions as the HTS assay, except that graded concentrations of each test compound were used, with total amount of vehicle (DMSO) kept constant. CRC experiments with purified recombinant mouse NAPE-PLD were performed on two separate days, with values from each day normalized to vehicle only controls on same plate, and then all normalized values from both days averaged together. CRC experiments with human NAPE-PLD represent value from only a single day, due to limited amounts of this recombinant enzyme.

[2] = biological target: T2, NAPE-PLD activity of HepG2 cells (Homo sapiens, UniProt Q6IQ20); test: Cell-based NAPE-PLD activity in HepG2 cells (flame-NAPE); details: for In-cell NAPE-PLD activity in HepG2 (10 μM) with PED-A1 or flame-NAPE as substrate: Table 3; for Emax, NAPE-PLD activity of HepG2 cells: FIG. 18B; for Emax, NAPE-PLD activity of HepG2 cells / effect on NAPE-PLD activity in HepG2 cells: flame-NAPE; for effect on NAPE-PLD activity in HepG2 cells: graded concentrations; for Emax / EC50: HepG2 cells; for Emax: % maximal induced activity (Table 2, Example 7); for EC50: flame-NAPE (Table 2, Example 7)
T2 construct: endogenous in cells; host or cells: HepG2
Method: In vitro models of the hepatic steatosis of non-alcoholic fatty liver disease (NAFLD) are well-established, with the primary method being incubation of primary human hepatocytes or hepatocyte cell lines such as HepG2, HuH7, HepaRG, with oleic acid and palmitic acid for 24 to 48 h, then measuring the resulting steatosis, lipid peroxidation, apoptosis, and inflammatory gene expression. Using flame-NAPE to measure NAPE-PLD activity in the human hepatoma HepG2 cell line, the experimental data confirmed that VU534 activated NAPE-PLD in human cells (AC50 940 nM; max % bA 155%). Bithionol (10 μM) reduced HepG2 flame-NAPE hydrolysis by >67%.
NAPE-PLD activity was measured in cells as previously described, except that FluoroBrite DMEM (Gibco A1896701) was used as media. See Zarrow et al., J. Lipid Res. 63(1): 100156 (2022). For RAW264.7 assays, PED-A1 (3.6 μM final) was used as the substrate with 10 μM orlistat added to inhibit PLA1 activity, while for HepG2 cells, flame-NAPE was used (with no orlistat added).

[3] = tested on: HepG2 human hepatocytoma cells; test: Cytotoxicity (MTT) in HepG2 cells; format: cell-based; details: for % HepG2 viability (33 μM): Table 3; for cytotoxicity in HepG2 cells: up to / at 30 μM
Method: Cytotoxicity was measured using MTT as previously described except that the studies used 96-well plates with 100 μL of 0.3 mg/mL MTT solution was added after 24 h of treatment and then replaced after 3 h with 0.1 M HCl in isopropanol. See Aggarwal et al., J. Biol. Chem. 295(21): 7289-7300 (2020). Viability was expressed as percent absorbance at 560 nm relative to vehicle controls.

[4] = Table 3, read-out: In vitro EC50
[5] = Table 3, read-out: In vitro Emax (100% activity is baseline activity of vehicle only)
[6] = Table 1, concentration for 50% maximum activation from basal activity (no activator)
[7] = Table 2, maximal induced activity for recombinant NAPE-PLD compared to basal (100%), read-out: Emax (%)
[8] = Table 2, rNAPE-PLD activity assay, read-out: EC50

T2 sequence (Q6IQ20 whole entry): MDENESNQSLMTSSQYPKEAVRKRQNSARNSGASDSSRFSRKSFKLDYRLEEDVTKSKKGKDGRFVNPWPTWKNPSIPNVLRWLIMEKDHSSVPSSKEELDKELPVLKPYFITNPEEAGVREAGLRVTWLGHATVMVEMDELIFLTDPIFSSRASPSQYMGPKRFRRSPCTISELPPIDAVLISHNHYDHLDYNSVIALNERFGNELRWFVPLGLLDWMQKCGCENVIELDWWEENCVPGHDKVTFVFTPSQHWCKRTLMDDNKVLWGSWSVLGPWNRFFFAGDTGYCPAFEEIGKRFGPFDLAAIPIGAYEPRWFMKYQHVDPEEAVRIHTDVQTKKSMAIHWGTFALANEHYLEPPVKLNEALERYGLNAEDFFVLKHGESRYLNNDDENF

EC50 [1, 4] | Emax [1, 5] | Emax (95% Cl) [1] | In-cell NAPE-PLD activity in HepG2 (10 μM) with PED-A1 or flame-NAPE as substrate [2] | Max % bA (%) ([1]; Table 1) | Emax [1, 7] | EC50 [1, 8] | bAC175 ([1]; Table 1) | AC50 [1, 6] | SMILES | % HepG2 viability (33 μM) [3] | effect on NAPE-PLD activity in HepG2 cells [2] | other results
3400 nM | 183% | 1.8 (1.7-2.0) fold | 122% |  |  |  |  |  | O=C(Nc1nc2ccccc2s1)C1CCN(S(=O)(=O)c2cccnc2)CC1 [VU203] | 41% |  | 
 |  |  |  |  | 175% | 940 nM |  |  | Cc1cccc2sc(NC(=O)C3CCN(S(=O)(=O)c4cccnc4)CC3)nc12 [MRJ-058C] |  |  | 
~940 nM | ~176% | 2.1 (2.0-2.2) fold | 148% |  |  |  |  |  | Cc1cccc2sc(NC(=O)C3CCN(S(=O)(=O)c4cccnc4)CC3)nc12 [VU211] | 72% |  | 
~2900 nM | ~150% | 1.7 (1.6-1.9) fold | 125% |  |  |  |  |  | Cn1cc(S(=O)(=O)N2CCC(C(=O)Nc3nc4ccccc4s3)CC2)cn1 [VU227] | 66% |  | 
240 nM | 189% | 1.8 (1.7-1.9) fold |  |  | 190% | 240 nM |  |  | Cc1ccc2nc(NC(=O)C3CCN(S(=O)(=O)c4ccc(F)cc4)CC3)sc2c1 [VU486] |  |  | 
4700 nM | 179% | 1.9 (1.8-2.1) fold | 206% |  |  |  |  |  | Cc1cccc2sc(NC(=O)C3CCN(S(=O)(=O)c4ccc(F)c(Cl)c4)CC3)nc12 [VU209] | 73% |  | 

Continued, molecule first:

SMILES | EC50 [1, 4] | Emax [1, 5] | Emax (95% Cl) [1] | In-cell NAPE-PLD activity in HepG2 (10 μM) with PED-A1 or flame-NAPE as substrate [2] | Max % bA (%) ([1]; Table 1) | Emax [1, 7] | EC50 [1, 8] | bAC175 ([1]; Table 1) | AC50 [1, 6] | % HepG2 viability (33 μM) [3] | effect on NAPE-PLD activity in HepG2 cells [2] | other results
Cc1ccc(C)c2sc(NC(=O)C3CCN(S(=O)(=O)c4ccc(F)cc4)CC3)nc12 [VU533] |  |  | 2.6 (2.6-2.8) fold |  | <120% | < 120% |  |  |  |  | increased NAPE-PLD activity | AC50 (nM) [1, 6]: Not active; EC50 (μM) ([1]; Table 2, rNAPE-PLD activity assay): Inactive; Emax, NAPE-PLD activity of HepG2 cells [2]: 1.6 fold; cytotoxicity in HepG2 cells [3]: no cytotoxicity
Cc1cc(C)c2sc(NC(=O)C3CCN(S(=O)(=O)c4ccc(F)cc4)CC3)nc2c1 [VU534, N-(5,7-Dimethylbenzo[d]thiazol-2-yl)-1-((4-fluorophenyl)sulfonyl)piperidine-4-carboxamide] | 290 nM | 209% | 2.1 (2.0-2.2) fold | 211% | 195% | 205% | 280 nM | 750 nM | 270 nM | 91% | increased NAPE-PLD activity; also recorded: enhances NAPE-PLD activity | Emax, NAPE-PLD activity of HepG2 cells [2]: 1.6 fold; AC50 ([2]; HepG2, flame-NAPE (Example 7)): 940 nM; max % bA in HepG2 cells ([2]; HepG2, flame-NAPE (Example 7)): 155%; Emax [2]: 145%; EC50 [2]: 2.4 µM; cytotoxicity in HepG2 cells [3]: minimal cytotoxicity
Cc1ccc2sc(NC(=O)C3CCN(S(=O)(=O)c4ccc(F)cc4)CC3)nc2c1C [VU517] | 1500 nM | 213% | 2.0 (2.0-2.1) fold |  | 190% | 210% | 1500 nM | 1480 nM | 767 nM |  | enhances NAPE-PLD activity | Emax [2]: 185%; EC50 [2]: 8.9 µM
Cc1ccc(S(=O)(=O)N2CCC(C(=O)Nc3nc4c(C)cc(C)cc4s3)CC2)cc1 [VU575] | 190 nM | 215% | 2.4 (2.3-2.5) fold |  | 210% | 220% | 190 nM | 1690 nM | 950 nM |  | enhances NAPE-PLD activity | Emax [2]: 145%; EC50 [2]: 3.1 µM
Cc1cccc2sc(NC(=O)C3CCN(S(=O)(=O)c4ccc(F)c(Cl)c4)CC3)nc12 [MRJ-058B] |  |  |  |  |  | 180% | 4700 nM |  |  |  |  | 
Cc1cccc2sc(NC(=O)C3CCN(S(=O)(=O)c4cnn(C)c4)CC3)nc12 [MRJ-058D] |  |  |  |  |  | 240% | 1500 nM |  |  |  |  | 
Cc1cc2nc(NC(=O)C3CCN(S(=O)(=O)c4ccc(F)cc4)CC3)sc2cc1C [VU536] | 890 nM | 227% | 2.3 (2.2-2.4) fold |  | 215% | 225% | 890 nM | 2400 nM | 1540 nM |  |  | 
